SMILES strings stand for the structures.

For test [1], the system named is WT Eco riboswitch 36-mer, biotinylated (RNA, riboswitch) AUUGGGUUCCCUCACCCCAAUGGUUAAUCAAAAAGG
As to the kind of experiment: SPR kinetics (1:1 fit). The note with it: Na+ 100 mM, Mg2+ 3 mM; 10 mM Na-HEPES pH 7.5, 25 °C; apparent.

The subject of test [2] is WT Eco riboswitch 36-mer (RNA, riboswitch) AUUGGGUUCCCUCACCCCAAUGGUUAAUCAAAAAGG
As to the kind of experiment: ITC. To be noted: 10 μM RNA in cell, 100 μM preQ1 in syringe; buffer as in cited work.

Test [3] concerns G6DAP/C16U (RNA, riboswitch, 2,6-diaminopurine at 6) AUUGGGUUCCCUCACUCCAAUGGUUAAUCAAAAAGG
Briefly: SPR steady state (one-site fit). The note with it: Na+ 100 mM, Mg2+ 3 mM; 10 mM Na-HEPES pH 7.5, 25 °C; preQ1 1.25 to 200 μM.

Test [4] has as its system Eco 30-mer (crystal construct) (RNA, riboswitch) UUGGGUUCCCUCACCCCAAUCAUAAAAAGG
As to the kind of experiment: X-ray crystallography (2.30 Å, Mn2+ SAD). To be noted: Mn2+ 5 mM, K+ 100 mM, Mg2+ 2 mM (well solution); Na-cacodylate pH 6.0, spermine, MPD, 20 °C.

For test [5] the test system is unchanged. Briefly: ITC. The note with it: 10 μM RNA in cell, 100 μM preQ1 in syringe; buffer as in cited work.
The subject of test [6] is Eco 35-mer (linker ΔG) (RNA, riboswitch) AUUGGGUUCCCUCACCCCAAUGUUAAUCAAAAAGG
As to the kind of experiment: ITC. To be noted: 10 μM RNA in cell, 100 μM preQ1 in syringe; buffer as in cited work.

For test [7], the system named is Eco 34-mer (linker ΔGG) (RNA, riboswitch) AUUGGGUUCCCUCACCCCAAUUUAAUCAAAAAGG
Briefly: ITC. To be noted: 10 μM RNA in cell, 100 μM preQ1 in syringe; buffer as in cited work.

In test [8] the test system is Eco 33-mer (linker ΔGGU) (RNA, riboswitch) AUUGGGUUCCCUCACCCCAAUUAAUCAAAAAGG
Briefly: ITC. The note with it: 10 μM RNA in cell, 100 μM preQ1 in syringe; buffer as in cited work.

In test [9] the test system is C15U (RNA, riboswitch) AUUGGGUUCCCUCAUCCCAAUGGUUAAUCAAAAAGG
Briefly: SPR steady state (one-site fit). To be noted: Na+ 100 mM, Mg2+ 3 mM; 10 mM Na-HEPES pH 7.5, 25 °C; preQ1 9.7 to 10,000 μM.

The subject of test [10] is U7C (RNA, riboswitch) AUUGGGCUCCCUCACCCCAAUGGUUAAUCAAAAAGG
As to the kind of experiment: SPR steady state (one-site fit). To be noted: Na+ 100 mM, Mg2+ 3 mM; 10 mM Na-HEPES pH 7.5, 25 °C; preQ1 9.7 to 10,000 μM; text gives 4.2 ± 0.3 mM.

Consider `N#Cc1c[nH]c2nc(N)[nH]c(=O)c12`, for which the KD in test [1] was 15,970 ± 2260 nM.

Consider `NCc1c[nH]c2nc(N)[nH]c(=O)c12`, for which the KD was 57.9 ± 1.5 nM in test [2]; 77,390 ± 5880 nM in [3]; 51.9 ± 1.8 nM in test [5]; 33.4 ± 1.9 nM in test [6]; 14.0 ± 1.6 nM in [7]; 30.2 ± 1.3 nM in [8]. Also, the results for the KD in test [1], in [9] and in [10] were 120 ± 6 nM, 7,682,000 ± 206,000 nM and 4,220,000 ± 33,000 nM, respectively. In addition, in test [4], the binding entry was “yes”.

Values taken from PMC10622847 (2023).
